In patent publication US7011816B2, “Labeling targeting agents with gallium-68 and gallium-67” (Immunomedics, Inc., priority 2001, dated 2006):
*1 amine or outer side, *2 acyl side, *3 side chain or, on linkers, in order; H or OH if unused. Where a SMILES comes first, the peptide text is derived from it. Side-chain parts run from the residue outwards. [ ]: non-standard residue; d: D form. The star is where a group is joined. DOTA = O=C(O)CN1CCN(CC(=O)O)CCN(CC(=O)*)CCN(CC(=O)O)CC1; NH(2-(imidazol-4-yl)ethyl) = c1ncc(CCN*)[nH]1; Suc = O=C(CCC(=O)[*:2])[*:1]

Experiments:
Design in all cases: species or system nude mice
[1] = test system: GW39 human colon tumor xenografts; settings: mouse, in vivo
Experimental: (§1) The bispecific antibody I-125-hMN-14×679-F(ab′)2 (anti-CEA×anti-HSG, radiolabeled with iodine-125 as a tracer radionuclide) was injected into nude mice bearing GW39 human colon tumor xenografts. Twenty-four hours later, the Ga-67-IMP 241 peptide, prepared according to the method described in Example # 4, was injected. At specified times post-injection, five animals per time-point were sacrificed and tissues collected and counted for both I-125 and Ga-67 radioactivity, using dual energy windows for each respective radionuclide. Additionally, biodistribution of Ga-67-IMP 241 given alone, without bsAb pretargeting is shown in Table 3 (four animals per group in this series). In each Table, the data is presented in terms of percent injected dose per gram of tissue (± standard deviation). Additionally, the biodistribution data for I-125-hMN-14×679-F(ab′)2 and Ga-67-IMP 241, from the same experiment, is reported in terms of tumor-to non-tumor ratio (T/NT) (Tables 4 & 5, for 1–125 and Ga-67, respectively).

in vivo = settings: nude, mouse, total radioactivity
Experimental: as §1

[2] = test system: GW39 human colon tumor xenografts; test: in vivo; settings: mouse
Experimental: as §1

[3] = Tumor-to-tissue ratio Lg. Intestine
[4] = Tumor-to-tissue ratio Sm. Intestine

Structure (SMILES): NC(=O)[C@H](CCCCNC(=O)CNC(=O)CCC(=O)NCCc1cnc[nH]1)NC(=O)[C@@H](Cc1ccc(O)cc1)NC(=O)[C@H](CCCCNC(=O)CNC(=O)CCC(=O)NCCc1cnc[nH]1)NC(=O)[C@H](Cc1ccccc1)NC(=O)CN1CCN(CC(=O)O)CCN(CC(=O)O)CCN(CC(=O)O)CC1 [Ga-67-IMP 241, metal not drawn] ({DOTA}-FK([Gly-Suc-NH(2-(imidazol-4-yl)ethyl)])[dY]K([Gly-Suc-NH(2-(imidazol-4-yl)ethyl)])-NH2)
- Clearance when given alone [1]: essentially clears completely within the first hour post-injection
- tissue to tissue ratio at 1 h (in vivo; Tumor-to-tissue ratio Blood): 1.7 ± 0.8
- tissue to tissue ratio at 2 h (in vivo; Tumor-to-tissue ratio Blood): 6.1 ± 5
- tissue to tissue ratio at 3 h (in vivo; Tumor-to-tissue ratio Blood): 8.5 ± 9.5
- tissue to tissue ratio at 4 h (in vivo; Tumor-to-tissue ratio Blood): 8.7 ± 4.6
- tissue to tissue ratio at 6 h (in vivo; Tumor-to-tissue ratio Blood): 12.1 ± 8
- tissue to tissue ratio at 1 h (in vivo; Tumor-to-tissue ratio Bone): 11.5 ± 11
- tissue to tissue ratio at 2 h (in vivo; Tumor-to-tissue ratio Bone): 24.6 ± 15.1
- tissue to tissue ratio at 3 h (in vivo; Tumor-to-tissue ratio Bone): 17.8 ± 13.7
- tissue to tissue ratio at 4 h (in vivo; Tumor-to-tissue ratio Bone): 18.3 ± 3.1
- tissue to tissue ratio at 6 h (in vivo; Tumor-to-tissue ratio Bone): 53 ± 41.7
- tissue to tissue ratio at 1 h (in vivo; Tumor-to-tissue ratio Kidney): 2.3 ± 1.6
- tissue to tissue ratio at 2 h (in vivo; Tumor-to-tissue ratio Kidney): 3.5 ± 2.2
- tissue to tissue ratio at 3 h (in vivo; Tumor-to-tissue ratio Kidney): 2.4 ± 1.8
- tissue to tissue ratio at 4 h (in vivo; Tumor-to-tissue ratio Kidney): 3.1 ± 1.1
- tissue to tissue ratio at 6 h (in vivo; Tumor-to-tissue ratio Kidney): 4.3 ± 2.7
- tissue to tissue ratio at 1 h (in vivo; [3]): 67.3 ± 44.1
- tissue to tissue ratio at 2 h (in vivo; [3]): 74.2 ± 55
- tissue to tissue ratio at 3 h (in vivo; [3]): 72.7 ± 89
- tissue to tissue ratio at 4 h (in vivo; [3]): 56.5 ± 21.7
- tissue to tissue ratio at 6 h (in vivo; [3]): 162 ± 270
- tissue to tissue ratio at 1 h (in vivo; Tumor-to-tissue ratio Liver): 8 ± 3.8
- tissue to tissue ratio at 2 h (in vivo; Tumor-to-tissue ratio Liver): 15.9 ± 8.9
- tissue to tissue ratio at 3 h (in vivo; Tumor-to-tissue ratio Liver): 13.1 ± 12
- tissue to tissue ratio at 4 h (in vivo; Tumor-to-tissue ratio Liver): 16.2 ± 8.6
- tissue to tissue ratio at 6 h (in vivo; Tumor-to-tissue ratio Liver): 16 ± 10.5
- tissue to tissue ratio at 1 h (in vivo; Tumor-to-tissue ratio Lungs): 4.5 ± 1.9
- tissue to tissue ratio at 2 h (in vivo; Tumor-to-tissue ratio Lungs): 13.1 ± 7.5
- tissue to tissue ratio at 3 h (in vivo; Tumor-to-tissue ratio Lungs): 11.4 ± 11.1
- tissue to tissue ratio at 4 h (in vivo; Tumor-to-tissue ratio Lungs): 13.5 ± 5.9
- tissue to tissue ratio at 6 h (in vivo; Tumor-to-tissue ratio Lungs): 20.2 ± 12.5
- tissue to tissue ratio at 1 h (in vivo; [4]): 18.6 ± 9.1
- tissue to tissue ratio at 2 h (in vivo; [4]): 27.7 ± 9.1
- tissue to tissue ratio at 3 h (in vivo; [4]): 35.5 ± 26
- tissue to tissue ratio at 4 h (in vivo; [4]): 22 ± 12.7
- tissue to tissue ratio at 6 h (in vivo; [4]): 47.2 ± 35.9
- tissue to tissue ratio at 1 h (in vivo; Tumor-to-tissue ratio Spleen): 10.7 ± 7.2
- tissue to tissue ratio at 2 h (in vivo; Tumor-to-tissue ratio Spleen): 26.6 ± 28.7
- tissue to tissue ratio at 3 h (in vivo; Tumor-to-tissue ratio Spleen): 16.3 ± 13.1
- tissue to tissue ratio at 4 h (in vivo; Tumor-to-tissue ratio Spleen): 26.1 ± 23.4
- tissue to tissue ratio at 6 h (in vivo; Tumor-to-tissue ratio Spleen): 17.4 ± 12.7
- tissue to tissue ratio at 1 h (in vivo; Tumor-to-tissue ratio Stomach): 36.7 ± 22.8
- tissue to tissue ratio at 2 h (in vivo; Tumor-to-tissue ratio Stomach): 52.8 ± 17.6
- tissue to tissue ratio at 3 h (in vivo; Tumor-to-tissue ratio Stomach): 73.6 ± 47.4
- tissue to tissue ratio at 4 h (in vivo; Tumor-to-tissue ratio Stomach): 56.9 ± 36
- tissue to tissue ratio at 6 h (in vivo; Tumor-to-tissue ratio Stomach): 112 ± 60.7
- Tumor-to-tissue ratio Blood [2]: above 6:1
- Tumor-to-tissue ratio Kidney [2]: ~3.5:1
